{"source": "patent US12497393B2", "about": "“β-lactam compound, use thereof and preparation method therefor” (priority 2020, dated 2025)", "assay_in_all_cases": "Antibacterial activity MIC assay (two-fold dilution agar plating)", "type_in_all_cases": "cell-based", "key": {"[1]": {"test_system": "Proteus vulgaris", "conditions": "Proteus vulgaris ATCC 29905", "experimental": "(§1) Antibacterial Activity-Evaluating Method (MIC Assay)\n(§2) In this study, the compounds of the present invention were tested for their antibacterial activities by using two-fold dilution agar plating method and Denley Multipoint Inoculator A400 according to the guidelines of the CLSI/NCCLS standard. The tested strains were amplified by hydrolyzed casein peptone (Mueller-Hinton Agar) broth and Brain and Heart Infusion. The strains used in this study were bacterial strains that were purchased from ATCC or clinically isolated in Chinese hospitals. Aztreonam, polymyxin or levofloxacin was used as positive control. The drugs were diluted with hydrolyzed casein peptone broth to the desired concentrations including 128.0, 64.0, 32.0, 16.0, 8.0, 4.0, 2.0, 1.0, 0.5, 0.25, 0.125, 0.06 and 0.03 μg/mL, and then placed respectively into each well and mixed thoroughly. After inoculation, the tested strains were incubated for 18 hours at a constant temperature of 35° C., and their growth levels were observed. The drug concentration with no microbial growth in the well was recorded as the lowest Minimal Inhibitory Concentration (MIC)."}, "[2]": {"test_system": "Escherichia coli", "experimental": "as §1, §2"}, "[3]": {"test_system": "Shigella flexneri", "conditions": "Shigella flexneri ATCC 12022", "experimental": "as §1, §2"}, "[4]": {"test_system": "Providencia rettgeri", "conditions": "Providencia rettgeri ATCC 31052", "experimental": "as §1, §2"}, "[5]": {"test_system": "Enterobacter aerogenes", "conditions": "Enterobacter aerogenes ATCC 13048", "experimental": "as §1, §2"}, "[6]": {"test_system": "Proteus mirabilis", "conditions": "Proteus mirabilis ATCC 49565", "experimental": "as §1, §2"}, "[7]": {"test_system": "Enterobacter cloacae", "experimental": "as §1, §2"}, "[8]": {"test_system": "Salmonella typhi", "conditions": "Salmonella typhi H901", "experimental": "as §1, §2"}, "[9]": {"test_system": "Citrobacter freundii", "conditions": "Citrobacter freundii ATCC 43864", "experimental": "as §1, §2"}, "[10]": {"test_system": "Klebsiella Pneumoniae", "experimental": "as §1, §2"}, "[11]": {"test_system": "Serratia marcescens", "conditions": "Serratia marcescens ATCC 21074", "experimental": "as §1, §2"}, "[12]": {"test_system": "Stenotrophomonas maltophilia", "conditions": "Stenotrophomonas maltophilia ATCC 13636", "experimental": "as §1, §2"}, "[13]": {"test_system": "Acinetobacter baumannii", "experimental": "as §1, §2"}, "[14]": {"test_system": "Pseudomonas aeruginosa", "experimental": "as §1, §2"}}, "data": [{"smiles": "C=CCON=C(C(=O)NC1C(=O)N(OS(=O)(=O)O)C1(C)C)c1csc(N)n1", "note": "(stereo not drawn) [Compound B-1]", "values": [{"measurement": "Minimal Inhibitory Concentration (MIC)", "setting": "[1]", "result": "≤0.03", "unit": "µg/mL"}, {"measurement": "Minimal Inhibitory Concentration (MIC)", "setting": "[2]; Escherichia coli 08-85, mcr-1(+)", "result": 0.5, "unit": "µg/mL"}, {"measurement": "Minimal Inhibitory Concentration (MIC)", "setting": "[2]; Escherichia coli 13-43, mcr-1(+)", "result": 1, "unit": "µg/mL"}, {"measurement": "Minimal Inhibitory Concentration (MIC)", "setting": "[2]; Escherichia coli 13-66, mcr-1(+)", "result": 1, "unit": "µg/mL"}, {"measurement": "Minimal Inhibitory Concentration (MIC)", "setting": "[2]; Escherichia coli 16-1, ESBLs(+)", "result": 0.25, "unit": "µg/mL"}, {"measurement": "Minimal Inhibitory Concentration (MIC)", "setting": "[2]; Escherichia coli 16-7, ESBLs(−)", "result": 0.25, "unit": "µg/mL"}, {"measurement": "Minimal Inhibitory Concentration (MIC)", "setting": "[2]; Escherichia coli ATCC 25922, ESBLs(−)", "result": 0.5, "unit": "µg/mL"}, {"measurement": "Minimal Inhibitory Concentration (MIC)", "setting": "[2]; Escherichia coli ATCC 35218, ESBLs(+)", "result": 0.5, "unit": "µg/mL"}, {"measurement": "Minimal Inhibitory Concentration (MIC)", "setting": "[2]; Escherichia coli CDC1001728, NDM-1(+)", "result": 4, "unit": "µg/mL"}, {"measurement": "Minimal Inhibitory Concentration (MIC)", "setting": "[3]", "result": 0.5, "unit": "µg/mL"}, {"measurement": "Minimal Inhibitory Concentration (MIC)", "setting": "[4]", "result": "≤0.03", "unit": "µg/mL"}, {"measurement": "Minimal Inhibitory Concentration (MIC)", "setting": "[5]", "result": 1, "unit": "µg/mL"}, {"measurement": "Minimal Inhibitory Concentration (MIC)", "setting": "[6]", "result": 0.125, "unit": "µg/mL"}, {"measurement": "Minimal Inhibitory Concentration (MIC)", "setting": "[7]; Enterobacter cloacae ATCC 43560", "result": 0.25, "unit": "µg/mL"}, {"measurement": "Minimal Inhibitory Concentration (MIC)", "setting": "[7]; Enterobacter cloacae CDC1000654", "result": 8, "unit": "µg/mL"}, {"measurement": "Minimal Inhibitory Concentration (MIC)", "setting": "[8]", "result": 0.25, "unit": "µg/mL"}, {"measurement": "Minimal Inhibitory Concentration (MIC)", "setting": "[9]", "result": 0.5, "unit": "µg/mL"}, {"measurement": "Minimal Inhibitory Concentration (MIC)", "setting": "[10]; Klebsiella Pneumoniae 09-20, mcr-1(+)", "result": 1, "unit": "µg/mL"}, {"measurement": "Minimal Inhibitory Concentration (MIC)", "setting": "[10]; Klebsiella Pneumoniae 16-2, ESBLs(−)", "result": 0.5, "unit": "µg/mL"}, {"measurement": "Minimal Inhibitory Concentration (MIC)", "setting": "[10]; Klebsiella Pneumoniae 16-14, ESBLs(+)", "result": 0.5, "unit": "µg/mL"}, {"measurement": "Minimal Inhibitory Concentration (MIC)", "setting": "[10]; Klebsiella Pneumoniae ATCC 700603, ESBLs(+)", "result": 16, "unit": "µg/mL"}, {"measurement": "Minimal Inhibitory Concentration (MIC)", "setting": "[10]; Klebsiella Pneumoniae ATCC BAA-2146, NDM-1(+)", "result": 4, "unit": "µg/mL"}, {"measurement": "Minimal Inhibitory Concentration (MIC)", "setting": "[11]", "result": 1, "unit": "µg/mL"}, {"measurement": "Minimal Inhibitory Concentration (MIC)", "setting": "[12]", "result": 16, "unit": "µg/mL"}, {"measurement": "Minimal Inhibitory Concentration (MIC)", "setting": "[13]; Acinetobacter baumannii 16-16", "result": 32, "unit": "µg/mL"}, {"measurement": "Minimal Inhibitory Concentration (MIC)", "setting": "[13]; Acinetobacter baumannii 16-33", "result": 8, "unit": "µg/mL"}, {"measurement": "Minimal Inhibitory Concentration (MIC)", "setting": "[13]; Acinetobacter baumannii ATCC 19606", "result": 8, "unit": "µg/mL"}, {"measurement": "Minimal Inhibitory Concentration (MIC)", "setting": "[14]; Pseudomonas aeruginosa 16-11", "result": ">64", "unit": "µg/mL"}, {"measurement": "Minimal Inhibitory Concentration (MIC)", "setting": "[14]; Pseudomonas aeruginosa ATCC 27853", "result": 64, "unit": "µg/mL"}, {"measurement": "Minimal Inhibitory Concentration (MIC)", "setting": "[14]; Pseudomonas aeruginosa PAO1", "result": 16, "unit": "µg/mL"}]}]}
